We go through 19 compounds from patent publication US20230143612A1 (Arbutus Biopharma Corporation, priority 2020, published 2023).

A word on the IC50: it is the midpoint of a concentration-inhibition curve. A lower IC50 goes with higher potency.

The structures appear in SMILES notation.

Chain of PD-L1 His protein / PD-1 Fc protein (Q9NZQ7 19-238 limits assumed): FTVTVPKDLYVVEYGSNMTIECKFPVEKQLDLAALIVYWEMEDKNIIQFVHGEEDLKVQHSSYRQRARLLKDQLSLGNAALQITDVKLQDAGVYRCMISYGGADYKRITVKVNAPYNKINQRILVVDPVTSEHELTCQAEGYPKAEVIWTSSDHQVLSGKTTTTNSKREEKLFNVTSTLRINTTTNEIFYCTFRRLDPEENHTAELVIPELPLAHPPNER

The test addresses PD-L1 His protein / PD-1 Fc protein (Homo sapiens, UniProt Q9NZQ7). In words: HTRF Assay (PD-1/PD-L1 interaction). Particulars: PD-L1 His 6 nM, PD-1 Fc 6 nM. The class given is binding. The procedure, abridged: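 HTRF: PD-L1 His (6 nM final), compound (3-fold dilutions, 20 μM to 0.001 μM final) and PD-1 Fc (6 nM final) preincubated 15 min at room temperature. Anti-human IgG-XL665 and anti-6HIS Tb cryptate (mixed at 6.7 nM and 0.35 nM) then added for 1 h at room temperature before reading.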
(In general: TR-FRET usually uses a lanthanide donor and a delayed reading to cut background.)
As to `COC(=O)CCCNCc1cnc2cc(-c3cccc(-c4cccc(-c5ccc(CNC[C@@H]6CCC(=O)N6)c(OC)n5)c4Cl)c3Cl)ccn2c1=O` [Example 137, Methyl (S)-4-(((8-(2,2′-dichloro-3′-(6-methoxy-5-((((5-oxopyrrolidin-2-yl)methyl)amino)methyl)pyridin-2-yl)-[1,1′-biphenyl]-3-yl)-4-oxo-4H-pyrido[1,2-a]pyrimidin-3-yl)methyl)amino)butanoate], the midpoint of inhibition, the IC50, lay at 1.7 nM.

In turn, `COc1ccc(CNCc2cnc3cc(-c4cccc(-c5cccc(-c6ccc(CNC[C@@H]7CCC(=O)N7)c(OC)n6)c5Cl)c4Cl)ccn3c2=O)c(OC)c1` [Example 138, (S)-8-(2,2′-Dichloro-3′-(6-methoxy-5-((((5-oxopyrrolidin-2-yl)methyl)amino)methyl)pyridin-2-yl)-[1,1′-biphenyl]-3-yl)-3-(((2,4-dimethoxybenzyl)amino)methyl)-4H-pyrido[1,2-a]pyrimidin-4-one] gave an IC50 of 1.4 nM.

`COc1nc(-c2cccc(-c3cccc(-c4ccn5c(=O)c(CNC6(CC(=O)O)CC6)cnc5c4)c3Cl)c2Cl)ccc1CNC[C@@H]1CCC(=O)N1` [Example 139, (S)-2-(1-(((8-(2,2′-Dichloro-3′-(6-methoxy-5-((((5-oxopyrrolidin-2-yl)methyl)amino)methyl)-pyridin-2-yl)-[1,1′-biphenyl]-3-yl)-4-oxo-4H-pyrido[1,2-a]pyrimidin-3-yl)methyl)amino)-cyclopropyl)acetic acid] gave an IC50 of 0.4 nM.

For `COc1nc(-c2cccc(-c3cc(F)cc(-c4ccn5c(=O)c(CNC[C@@H]6CCC(=O)N6)cnc5c4)c3Cl)c2Cl)ccc1CNC[C@@H]1CCC(=O)N1` [Example 140, 8-(2,2′-Dichloro-5-fluoro-3′-(6-methoxy-5-(((((S)-5-oxopyrrolidin-2-yl)methyl)amino)methyl)pyridin-2-yl)-[1,1′-biphenyl]-3-yl)-3-(((((S)-5-oxopyrrolidin-2-yl)methyl)amino)methyl)-4H-pyrido[1,2-a]pyrimidin-4-one], half-maximal inhibition (IC50) was put at 2 nM.

As for `COc1nc(-c2cccc(-c3cc(Cl)cc(-c4ccn5c(=O)c(CNC[C@@H]6CCC(=O)N6)cnc5c4)c3Cl)c2Cl)ccc1CNC[C@@H]1CCC(=O)N1` [Example 141, 3-(((((S)-5-Oxopyrrolidin-2-yl)methyl)amino)methyl)-8-(2,2′,5-trichloro-3′-(6-methoxy-5-(((((S)-5-oxopyrrolidin-2-yl)methyl)amino)methyl)pyridin-2-yl)-[1,1′-biphenyl]-3-yl)-4H-pyrido[1,2-a]pyrimidin-4-one], 5.8 nM corresponded to half-maximal inhibition (IC50).

`COc1nc(-c2cccc(-c3cccc(-c4ccn5c(=O)c(CNC[C@@H]6CCC(=O)N6)cnc5c4)c3Cl)c2Cl)ccc1CN[C@H]1C[C@](C)(O)C1` [Example 142, 8-(2,2′-Dichloro-3′-(5-((((1r,3r)-3-hydroxy-3-methylcyclobutyl)amino)methyl)-6-methoxypyridin-2-yl)-[1,1′-biphenyl]-3-yl)-3-(((((S)-5-oxopyrrolidin-2-yl)methyl)amino)methyl)-4H-pyrido[1,2-a]pyrimidin-4-one] returned an IC50 of 1.7 nM.

Consider `COc1nc(-c2cccc(-c3cccc(-c4ccn5c(=O)c(CN[C@H]6C[C@](C)(O)C6)cnc5c4)c3Cl)c2Cl)ccc1CNC[C@@H]1CCC(=O)N1` [Example 143, 8-(2,2′-Dichloro-3′-(6-methoxy-5-(((((S)-5-oxopyrrolidin-2-yl)methyl)amino)methyl)pyridin-2-yl)-[1,1′-biphenyl]-3-yl)-3-((((1r,3r)-3-hydroxy-3-methylcyclobutyl)amino)methyl)-4H-pyrido[1,2-a]pyrimidin-4-one], for which it took 1.8 nM to reach half-maximal inhibition (IC50).

As to `COc1nc(-c2cccc(-c3cccc(-c4ccn5c(=O)c(CN6CC[C@H](O)C6)cnc5c4)c3Cl)c2Cl)ccc1CNC[C@@H]1CCC(=O)N1` [Example 144, 8-(2,2′-Dichloro-3′-(6-methoxy-5-(((((S)-5-oxopyrrolidin-2-yl)methyl)amino)methyl)pyridin-2-yl)-[1,1′-biphenyl]-3-yl)-3-(((S)-3-hydroxypyrrolidin-1-yl)methyl)-4H-pyrido[1,2-a]pyrimidin-4-one], half-maximal inhibition (IC50) required 3.1 nM.

`COc1nc(-c2cccc(-c3cccc(-c4ccn5c(=O)c(CNC[C@@H]6CCC(=O)N6)cnc5c4)c3Cl)c2C#N)ccc1CNC[C@@H]1CCC(=O)N1` [Example 145, 2′-Chloro-3-(6-methoxy-5-(((((S)-5-oxopyrrolidin-2-yl)methyl)amino)methyl)pyridin-2-yl)-3′-(4-oxo-3-(((((S)-5-oxopyrrolidin-2-yl)methyl)amino)methyl)-4H-pyrido[1,2-a]pyrimidin-8-yl)-[1,1′-biphenyl]-2-carbonitrile] gave a concentration for half-maximal inhibition (IC50) of 2.2 nM.

Take `COc1cc(-c2ccc(CNC[C@@H]3CCC(=O)N3)c(OC)n2)c(Cl)c(-c2cccc(-c3ccn4c(=O)c(CNC[C@@H]5CCC(=O)N5)cnc4c3)c2Cl)c1` [Example 146, 8-(2,2′-Dichloro-5′-methoxy-3′-(6-methoxy-5-(((((S)-5-oxopyrrolidin-2-yl)methyl)amino)methyl)pyridin-2-yl)-[1,1′-biphenyl]-3-yl)-3-(((((S)-5-oxopyrrolidin-2-yl)methyl)amino)methyl)-4H-pyrido[1,2-a]pyrimidin-4-one]: 240 nM corresponded to half-maximal inhibition (IC50).

`COc1nc(-c2cccc(-c3cccc(-c4ccn5c(=O)c(CNC[C@@H]6CCC(=O)N6)cnc5c4)c3Cl)c2Cl)cc(F)c1CNC[C@@H]1CCC(=O)N1` [Example 147, 8-(2,2′-Dichloro-3′-(4-fluoro-6-methoxy-5-(((((S)-5-oxopyrrolidin-2-yl)methyl)amino)methyl)pyridin-2-yl)-[1,1′-biphenyl]-3-yl)-3-(((((S)-5-oxopyrrolidin-2-yl)methyl)amino)methyl)-4H-pyrido[1,2-a]pyrimidin-4-one] returned an IC50 of 3.9 nM.

In turn, `COc1nc(-c2cccc(-c3cccc(-c4ccn5c(=O)c(CN6C[C@@H](O)C[C@H]6C(=O)O)cnc5c4)c3Cl)c2Cl)ccc1CNC[C@@H]1CCC(=O)N1` [Example 148, (2S,4S)-1-((8-(2,2′-Dichloro-3′-(6-methoxy-5-(((((S)-5-oxopyrrolidin-2-yl)methyl)amino)methyl)pyridin-2-yl)-[1,1′-biphenyl]-3-yl)-4-oxo-4H-pyrido[1,2-a]pyrimidin-3-yl)methyl)-4-hydroxypyrrolidine-2-carboxylic acid] came in with a 50% inhibitory concentration (IC50) of 0.4 nM.

Compound `COc1nc(-c2cccc(-c3cccc(-c4ccn5c(=O)c(CN6C[C@@H](O)C[C@@H]6C(=O)O)cnc5c4)c3Cl)c2Cl)ccc1CNC[C@@H]1CCC(=O)N1` [Example 149, (2R,4S)-1-((8-(2,2′-Dichloro-3′-(6-methoxy-5-(((((S)-5-oxopyrrolidin-2-yl)methyl)amino)methyl)pyridin-2-yl)-[1,1′-biphenyl]-3-yl)-4-oxo-4H-pyrido[1,2-a]pyrimidin-3-yl)methyl)-4-hydroxypyrrolidine-2-carboxylic acid] came in with an IC50 of 0.3 nM.

Regarding `COC[C@@H](NCc1cnc2cc(-c3cccc(-c4cccc(-c5ccc(CNC[C@@H]6CCC(=O)N6)c(OC)n5)c4Cl)c3Cl)ccn2c1=O)C(=O)O` [Example 150, N-((8-(2,2′-Dichloro-3′-(6-methoxy-5-(((((S)-5-oxopyrrolidin-2-yl)methyl)amino)methyl)-pyridin-2-yl)-[1,1′-biphenyl]-3-yl)-4-oxo-4H-pyrido[1,2-a]pyrimidin-3-yl)methyl)-O-methyl-D-serine], the midpoint of inhibition, the IC50, lay at 0.3 nM.

Compound `COc1nc(-c2cccc(-c3cccc(-c4ccn5c(=O)c(CN[C@@H](CO)C(=O)O)cnc5c4)c3Cl)c2Cl)ccc1CNC[C@@H]1CCC(=O)N1` [Example 151, ((8-(2,2′-Dichloro-3′-(6-methoxy-5-(((((S)-5-oxopyrrolidin-2-yl)methyl)amino)methyl)pyridin-2-yl)-[1,1′-biphenyl]-3-yl)-4-oxo-4H-pyrido[1,2-a]pyrimidin-3-yl)methyl)-L-serine] showed a 50% inhibitory concentration (IC50) of 0.3 nM.

In turn, `COc1nc(-c2cccc(-c3cccc(-c4ccn5c(=O)c(CN6CCN7C(=O)CCC7C6)cnc5c4)c3Cl)c2Cl)ccc1CNC[C@@H]1CCC(=O)N1` (stereo partly drawn) [Example 152, 8-(2,2′-Dichloro-3′-(6-methoxy-5-(((((S)-5-oxopyrrolidin-2-yl)methyl)amino)methyl)pyridin-2-yl)-[1,1′-biphenyl]-3-yl)-3-((6-oxohexahydropyrrolo[1,2-a]pyrazin-2(1H)-yl)methyl)-4H-pyrido[1,2-a]pyrimidin-4-one] showed a concentration for half-maximal inhibition (IC50) of 3.1 nM.

The compound `COc1nc(-c2cccc(-c3cccc(-c4ccn5c(=O)c(CN6CCCC6CO)cnc5c4)c3Cl)c2Cl)ccc1CNC[C@@H]1CCC(=O)N1` (stereo partly drawn) [Example 153, 8-(2,2′-Dichloro-3′-(6-methoxy-5-(((((S)-5-oxopyrrolidin-2-yl)methyl)amino)methyl)pyridin-2-yl)-[1,1′-biphenyl]-3-yl)-3-((2-(hydroxymethyl)pyrrolidin-1-yl)methyl)-4H-pyrido[1,2-a]pyrimidin-4-one] returned a 50% inhibitory concentration (IC50) of 0.8 nM.

Compound `COc1nc(-c2cccc(-c3cccc(-c4ccn5c(=O)c(CNC(C)(C)CC(=O)O)cnc5c4)c3Cl)c2Cl)ccc1CNC[C@@H]1CCC(=O)N1` [Example 154, (S)-3-(((8-(2,2′-Dichloro-3′-(6-methoxy-5-((((5-oxopyrrolidin-2-yl)methyl)amino)-methyl)pyridin-2-yl)-[1,1′-biphenyl]-3-yl)-4-oxo-4H-pyrido[1,2-a]pyrimidin-3-yl)methyl)amino)-3-methylbutanoic acid] came in with an IC50 of 0.4 nM.

For `COc1cc(-c2cccc(-c3cccc(-c4ccc(CNC[C@@H]5CCC(=O)N5)c(OC)n4)c3Cl)c2Cl)cc2c1CN(C[C@@H]1CCC(=O)N1)CC2` [Example 155, (S)-5-((6-(2,2′-Dichloro-3′-(6-methoxy-5-(((((S)-5-oxopyrrolidin-2-yl)methyl)amino)-methyl)pyridin-2-yl)-[1,1′-biphenyl]-3-yl)-8-methoxy-3,4-dihydroisoquinolin-2(1H)-yl)methyl)pyrrolidin-2-one], the IC50 stood at 0.4 nM.
